Laboratory results from patent US20110178070A1, “PI3K/mTOR INHIBITORS” (TAKEDA PHARMACEUTICAL COMPANY LIMITED, priority 2008, published 2011).
pIC50: −log10 of the molar value. Like-named read-outs stand apart in the source and are kept apart here.

Columns and labels:
[1] = target: T1, PI3Kalpha (PIK3CA/PIK3R1, p110 alpha/p85 alpha) (Homo sapiens, UniProt P42336); test: Adapta universal kinase assay, inhibition of PI3Kalpha (Example B); type: biochemical; details: for IC50: Table 1, 25 μM ATP, read-out: IC50 (nM) PI3Kα
T1 construct: recombinant human, full length, N-terminal His-tagged phosphoinositide-3-kinase catalytic subunit alpha polypeptide; His (N); purchased Invitrogen Corp. PV4788; host or cells: insect cells
T1 sequence (P42336 whole entry): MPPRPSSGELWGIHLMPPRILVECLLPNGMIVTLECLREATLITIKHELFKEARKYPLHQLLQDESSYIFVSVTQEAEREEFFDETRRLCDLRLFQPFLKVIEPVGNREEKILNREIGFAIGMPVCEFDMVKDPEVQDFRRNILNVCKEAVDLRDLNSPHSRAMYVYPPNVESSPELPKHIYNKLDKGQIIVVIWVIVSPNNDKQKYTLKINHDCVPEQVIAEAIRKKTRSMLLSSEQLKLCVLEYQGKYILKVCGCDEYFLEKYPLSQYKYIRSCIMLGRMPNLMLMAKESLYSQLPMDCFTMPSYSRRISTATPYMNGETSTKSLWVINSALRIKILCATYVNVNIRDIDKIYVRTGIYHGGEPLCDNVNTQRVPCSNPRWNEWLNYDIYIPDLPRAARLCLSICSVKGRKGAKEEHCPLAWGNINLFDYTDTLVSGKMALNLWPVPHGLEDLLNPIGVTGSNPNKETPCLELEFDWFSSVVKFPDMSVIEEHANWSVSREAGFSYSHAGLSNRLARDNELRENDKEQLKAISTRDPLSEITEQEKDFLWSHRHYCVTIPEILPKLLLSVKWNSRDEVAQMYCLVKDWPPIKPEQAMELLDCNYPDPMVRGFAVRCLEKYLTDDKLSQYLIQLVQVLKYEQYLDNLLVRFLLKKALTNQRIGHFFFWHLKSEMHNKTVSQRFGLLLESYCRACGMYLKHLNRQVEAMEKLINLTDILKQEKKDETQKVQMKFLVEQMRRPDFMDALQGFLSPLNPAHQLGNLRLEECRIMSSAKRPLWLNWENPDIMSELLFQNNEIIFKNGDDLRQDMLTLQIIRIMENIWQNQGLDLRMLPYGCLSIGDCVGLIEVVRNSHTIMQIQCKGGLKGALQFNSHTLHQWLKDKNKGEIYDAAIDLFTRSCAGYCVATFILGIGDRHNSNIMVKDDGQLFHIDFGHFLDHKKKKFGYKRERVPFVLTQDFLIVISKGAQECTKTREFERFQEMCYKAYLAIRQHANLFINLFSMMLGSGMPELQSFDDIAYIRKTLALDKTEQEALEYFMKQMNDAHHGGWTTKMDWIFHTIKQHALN
T1 sequence (P27986 whole entry partner): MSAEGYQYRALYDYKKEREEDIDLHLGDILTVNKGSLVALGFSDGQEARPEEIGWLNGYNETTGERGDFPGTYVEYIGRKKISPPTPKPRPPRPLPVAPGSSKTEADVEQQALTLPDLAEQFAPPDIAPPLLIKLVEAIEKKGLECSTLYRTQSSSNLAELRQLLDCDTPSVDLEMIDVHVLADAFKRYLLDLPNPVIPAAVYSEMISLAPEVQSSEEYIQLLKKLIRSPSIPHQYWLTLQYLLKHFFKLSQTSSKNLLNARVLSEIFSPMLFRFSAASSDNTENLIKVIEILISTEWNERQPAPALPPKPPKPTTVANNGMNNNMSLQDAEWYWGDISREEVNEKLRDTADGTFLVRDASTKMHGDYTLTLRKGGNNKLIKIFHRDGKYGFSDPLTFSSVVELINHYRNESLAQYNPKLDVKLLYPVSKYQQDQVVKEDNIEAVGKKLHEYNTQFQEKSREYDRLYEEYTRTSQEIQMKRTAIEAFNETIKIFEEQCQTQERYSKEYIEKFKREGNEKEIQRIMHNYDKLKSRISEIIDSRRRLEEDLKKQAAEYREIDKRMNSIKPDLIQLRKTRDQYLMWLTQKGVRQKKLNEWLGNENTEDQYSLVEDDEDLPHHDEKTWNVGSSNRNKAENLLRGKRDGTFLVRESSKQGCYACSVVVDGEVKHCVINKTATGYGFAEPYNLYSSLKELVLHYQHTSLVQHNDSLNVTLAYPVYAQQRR
Description: In contrast to ATP depletion assays, the Adapta™ assay is extremely sensitive to ADP formation such that a majority of the signal change occurs in the first 10-20% conversion of ATP to ADP. This makes the Adapta™ universal kinase assay ideally suited for use with low activity kinases.
The principle of the Adapta™ universal kinase assay is outlined below. The assay itself can be divided into two phases: a kinase reaction phase, and an ADP detection phase. In the kinase reaction phase, all components required for the kinase reaction are added to the well, and the reaction is allowed to incubate for 60 minutes. After the reaction, a detection solution consisting of a europium labeled anti-ADP antibody, an Alexa Fluor® 647 labeled ADP tracer, and EDTA (to stop the kinase reaction) is added to the assay well. ADP formed by the kinase reaction (in the absence of an inhibitor) will displace the Alexa Fluor® 647 labeled ADP tracer from the antibody, resulting in a decrease in the TR-FRET signal.
ADP formation is determined by calculating the emission ratio from the assay well. The emission ratio is calculated by dividing the intensity of the tracer (acceptor) emission by the intensity of the Eu (donor) emission at 615 nm as shown in the equation below.
Since the Adapta™ technology measures ADP formation (i.e. conversion of ATP to ADP) it can be used to measure any type of ATP hydrolysis, including intrinsic ATPase activity of kinases. In this case, the substrate is water, not a lipid or peptide (Kashem, et al., 2007, J. Biomol. Screen. 12, 1, 70-83).
The combination of recombinant human, full length, N-terminal His-tagged phosphoinositide-3-kinase catalytic subunit alpha polypeptide ([…], PI3Kalpha), expressed in and purified from insect cells along with co-expressed recombinant, full length, untagged phosphoinositide-3-kinase regulatory subunit 1 (p85 alpha) (combination also known as PIK3CA/PIK3R1; Invitrogen Corp. Cat # PV4788) was used as the enzyme for this assay.
The test compounds are screened at 1% DMSO (final) in the well. […] The PIP2:PS Substrate/Kinase Mixture was diluted 2× to working concentration in Kinase Buffer containing 50 mM HEPES pH 7.5, 0.1% CHAPS, and 1 mM EGTA. […] The Detection Mix was prepared in TR-FRET Dilution Buffer.
After the 1 hour Kinase Reaction incubation at room temperature, 5 μL of Detection Mix was added, followed by another 30 sec plate shake to ensure mixing, and the Detection Mix was allowed to equilibrate for 1 hour at room temperature.
Lipid substrates are prepared by creating lipid vesicles. In some cases, these vesicles include a carrier lipid, such as phosphatidylserine (PS). In the assay conditions section above, “PIP2:PS” refers to large unilamellar vesicles (LUVs) containing five mole percent L-α-Phosphatidylinositol-4,5-bisphosphate (PIP2) and ninety-five percent phosphatidylserine (PS), and the concentration listed refers only to the PIP2 substrate, not the PS carrier lipid.

mTOR = mTOR (Homo sapiens, UniProt P42345); test: Z-Lyte biochemical assay, inhibition of mTOR (Example A); details: for IC50: IC50 (nM) mTOR, Table 1, 10 μM ATP;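 on all read-outs here: synthetic Ser/Thr peptide with coumarin–fluorescein FRET pair, phosphorylation protects from protease cleavage, coumarin/fluorescein emission ratio after 400 nm excitation, 1 h kinase reaction, 10-point 3-fold titrations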
Chain of mTOR (P42345 1360-2549): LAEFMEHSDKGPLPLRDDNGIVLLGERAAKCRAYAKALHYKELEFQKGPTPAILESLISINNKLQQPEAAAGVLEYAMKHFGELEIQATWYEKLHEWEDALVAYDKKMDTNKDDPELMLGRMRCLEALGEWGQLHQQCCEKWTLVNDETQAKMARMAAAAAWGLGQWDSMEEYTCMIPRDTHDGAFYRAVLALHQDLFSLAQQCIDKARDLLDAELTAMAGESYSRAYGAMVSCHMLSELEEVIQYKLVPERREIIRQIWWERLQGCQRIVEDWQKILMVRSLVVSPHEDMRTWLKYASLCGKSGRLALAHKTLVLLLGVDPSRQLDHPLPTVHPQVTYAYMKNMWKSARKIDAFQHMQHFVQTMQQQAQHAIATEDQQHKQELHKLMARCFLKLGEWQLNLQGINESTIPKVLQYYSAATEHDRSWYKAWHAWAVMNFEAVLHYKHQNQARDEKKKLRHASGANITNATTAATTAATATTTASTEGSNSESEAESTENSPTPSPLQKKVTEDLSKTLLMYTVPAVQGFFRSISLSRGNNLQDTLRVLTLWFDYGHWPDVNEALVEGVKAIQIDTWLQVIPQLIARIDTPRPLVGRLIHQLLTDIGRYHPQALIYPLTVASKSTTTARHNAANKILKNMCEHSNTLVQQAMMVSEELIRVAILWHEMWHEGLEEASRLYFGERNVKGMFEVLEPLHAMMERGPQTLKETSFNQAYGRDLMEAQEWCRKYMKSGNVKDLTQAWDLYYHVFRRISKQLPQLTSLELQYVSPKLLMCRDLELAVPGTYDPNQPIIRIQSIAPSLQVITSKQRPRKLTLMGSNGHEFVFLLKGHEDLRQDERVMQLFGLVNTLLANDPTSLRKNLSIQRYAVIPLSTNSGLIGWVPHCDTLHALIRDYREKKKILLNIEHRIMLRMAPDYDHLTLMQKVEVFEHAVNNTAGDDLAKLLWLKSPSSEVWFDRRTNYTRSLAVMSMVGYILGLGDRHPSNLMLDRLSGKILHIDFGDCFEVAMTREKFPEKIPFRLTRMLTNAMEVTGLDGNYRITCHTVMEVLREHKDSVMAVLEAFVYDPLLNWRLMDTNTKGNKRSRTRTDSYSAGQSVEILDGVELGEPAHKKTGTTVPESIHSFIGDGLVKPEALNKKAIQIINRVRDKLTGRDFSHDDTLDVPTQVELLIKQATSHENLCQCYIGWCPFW
Description: The inhibitory property of a compound relative to mTOR catalysis was determined by using the Z-Lyte™ biochemical assay conducted by Invitrogen Corporation (Madison, Wis.), which employs a fluorescence-based, coupled-enzyme format and is based on the differential sensitivity of phosphorylated and non-phosphorylated peptides to proteolytic cleavage. The peptide substrate is labeled with two fluorophores—one at each end—that make up a FRET pair.
In the primary reaction, the kinase transfers the gamma-phosphate of ATP to a single tyrosine, serine or threonine residue in a synthetic FRET-peptide. In the secondary reaction, a site-specific protease recognizes and cleaves non-phosphorylated FRET-peptides. Phosphorylation of FRET-peptides suppresses cleavage by the Development Reagent. Cleavage disrupts FRET between the donor (i.e., coumarin) and acceptor (i.e., fluorescein) fluorophores on the FRET-peptide, whereas uncleaved, phosphorylated FRET-peptides maintain FRET. A ratio metric method, which calculates the ratio (the Emission Ratio) of donor emission to acceptor emission after excitation of the donor fluorophore at 400 nm, is used to quantitate reaction progress, as shown in the equation below.
A significant benefit of this ratio metric method for quantitating reaction progress is the elimination of well-to-well variations in FRET-peptide concentration and signal intensities. […] Both cleaved and uncleaved FRET-peptides contribute to the fluorescence signals and therefore to the Emission Ratio. The extent of phosphorylation of the FRET-peptide can be calculated from the Emission Ratio.
Recombinant human mTOR enzyme (amino acids 1360-2549), GST-tagged, expressed in and purified from insect cells (Invitrogen Corp. Cat. #PV4753; also known as FRAP1) was used for the assay. The 2×FRAP1 (mTOR)/Ser/Thr 11 Peptide Mixture (Invitrogen Corp.) was prepared in buffer containing 50 mM HEPES pH 7.5, 0.01% BRIJ-35, 10 mM MnCl2, 1 mM EGTA, 2 mM DTT, and 0.02% NaN3. The final 10 μL Kinase Reaction consisted of 7.2-58.1 ng FRAP1 (mTOR) and 2 μM Ser/Thr 11 Peptide in buffer containing 50 mM HEPES pH 7.5, 0.01% BRIJ-35, 5 mM MgCl2, 5 mM MnCl2, 1 mM EGTA, 1 mM DTT, and 0.01% NaN3.
Test compounds are screened in 1% DMSO (final) in the well. For 10 point titrations, 3-fold serial dilutions are conducted from the starting concentration. The Ser/Thr 11 Peptide/Kinase Mixture was diluted to a 2× working concentration in buffer containing 50 mM HEPES pH 7.5, 0.01% BRIJ-35, 10 mM MnCl2, 1 mM EGTA, 2 mM DTT, and 0.02% NaN3. The ATP solution was diluted to a 4× working concentration in buffer containing 50 mM HEPES pH 7.5, 0.01% BRIJ-35, 10 mM MgCl2, and 1 mM EGTA.
After the 1 hour Kinase Reaction incubation, 5 μL of a 1:16 dilution of Development Reagent B was added, and the development reaction was allowed to proceed for an additional 1 hour at room temperature. The assay plate was then read on a fluorescence plate reader and the data analyzed as outlined above.
IC50 values were calculated by non-linear least squares curve fitting using XLfit from IDBS to fit the results to model number 205 (sigmoidal dose-response model).

Row | IC50 [1] [nM] | IC50 (mTOR) [nM] | pIC50 ([1]; exact value in text, read-out: IC50 value for PI3K) | pIC50 (mTOR; IC50 value for mTOR, exact value in text) | SMILES
1 | > 1000 | > 1000 |  |  | CNS(=O)(=O)c1ccc(-c2ccc3nc(NC(C)=O)sc3n2)cc1 [Example 28, N-(5-(4-(N-Methylsulfamoyl)phenyl)thiazolo[5,4-b]pyridine-2-yl)acetamide]
2 | > 1000 | > 1000 |  |  | CC(=O)Nc1nc2ccc(-c3cccc4[nH]ccc34)cc2s1 [Example 14, N-(6-(1H-Indol-4-yl)benzo[d]thiazol-2-yl)acetamide]
3 | > 1000 | > 1000 |  |  | CC(=O)Nc1cccc(-c2ccc3nc(NC(C)=O)sc3c2)c1 [Example 41, N-(3-(2-Acetamidobenzo[d]thiazol-6-yl)phenyl)acetamide]
4 | > 1000 | 100 to 1000 |  |  | CC(=O)Nc1nc2ccc(-c3ccc4[nH]cc(C#N)c4c3)cc2s1 [Example 16, N-(6-(3-Cyano-1H-indol-5-yl)benzo[d]thiazol-2-yl)acetamide]
5 | > 1000 | > 1000 |  |  | CC(=O)Nc1nc2ccc(-c3ccc(S(C)(=O)=O)cc3)nc2s1 [Example 26, N-(5-(4-(Methylsulfonyl)phenyl)thiazolo[5,4-b]pyridine-2-yl)acetamide]
6 | > 1000 | > 1000 |  |  | CC(=O)Nc1nc2ccc(-c3ccc(C(C)(C)C#N)cc3)nc2s1 [Example 5, N-(5-(4-(2-Cyanopropan-2-yl)phenyl)thiazolo[5,4-b]pyridin-2-yl)acetamide]
7 | > 1000 | > 1000 |  |  | CC(=O)Nc1nc2ccc(-c3ccc4c(c3)NC(=O)CNC4=O)cc2s1 [Example 21, N-(6-(2,5-Dioxo-2,3,4,5-tetrahydro-1H-benzo[e][1,4]diazepin-8-yl)benzo[d]thiazol-2-yl)acetamide]
8 | 100 to 1000 | 100 to 1000 | 6.51 | 6.10 | CC(=O)Nc1nc2ccc(-c3ccc(NS(C)(=O)=O)cc3)nc2s1 [Example 29, N-(5-(4-(Methylsulfonamido)phenyl)thiazolo[5,4-b]pyridin-2-yl)acetamide]
9 | > 1000 | > 1000 |  |  | CC(=O)Nc1nc2ccc(-c3cc(NS(C)(=O)=O)c4[nH]ccc4c3)cc2s1 [Example 32, N-(6-(7-(Methylsulfonamido)-1H-indol-5-yl)benzo[d]thiazol-2-yl)acetamide]
